Reference: US4000160A, “Pyrrolyl oxyphenyl ketones” (Sterling Drug Inc., priority 1975, dated 1976)
Values after ≈ are worked out from the molar mass of the structure shown. Like-named read-outs stand apart in the source and are kept apart here.

What was measured:
Type in all cases: cell-based
[1] = test system: Ceratocystis ulmi; assay: agar growth test, percent inhibition of Ceratocystis ulmi; conditions: 120 h, read-out: % Inhibition, Agar Growth
Description: (§1) The test procedures, the agar growth and shake culture tests, used to determine this latter activity are described as follows: In the agar growth test a solution of 2 mg. of the test compound in 2 ml. of acetone was prepared and 0.2 ml. of this solution was added via sterile glass pipette to 20 ml. of molten (42° C.) sterile potato dextrose agar. Mixing was accomplished by repeated inversion of the tube. The mixture was poured into a sterile Petri dish, allowed to solidify at room temperature, and then was inoculated by placing in the center of the agar-chemical mixture a section (3 mm. diameter) of agar permeated with the mycelium of Ceratocystis ulmi. The inoculated dish was incubated at 25° C. for 5 days when the diameter of growth was measured and compared to the growth which had occurred in a control culture. The percent inhibition was calculated as: [formula] In the shake culture test, a 0.2 ml. aliquot of an acetone solution of the test compound (2 mg. in 2 ml.) was added to 20 ml. of sterile potato dextrose broth in a sterile 250 ml. Erlenmeyer flask. The flask was stoppered with a plug of sterile cotton, and the mixture was shaken for one hour on a New Brunswick "Gyrotatary" shake table. The mixture was inoculated by addition of a section (3 mm. diameter) of agar permeated with the mycelium of Ceratocystis ulmi and returned to the shake table where shaking was continued for five days at room temperature. The optical density of the mixture was measured, using an uninoculated sample of the broth as a blank, and compared with a control sample. The percent inhibition was calculated as: […]
(§2) Data obtained for the compounds of the invention in in vitro tests against fungal organism, Ceratocystis ulmi, in the agar growth and shake culture tests in comparison with the known antibiotic, pyoluteorin, at a standard dilution of 10 parts per million are given in terms of percent inhibition in the table below. The compounds are identified by reference to the example number above where their preparation is described.

[2] = test system: Ceratocystis ulmi; assay: shake culture test, percent inhibition of Ceratocystis ulmi; conditions: 120 h, read-out: % Inhibition, Shake Culture
Description: as §1, §2

[3] = test system: Escherichia coli 198; assay: in vitro antibacterial test (modified Autotiter method), minimum inhibitory concentration
Description: (§3) The antibacterial activity was determined using a modification of the Autotiter method described by Goss et al., Applied Microbiology, 16 (No. 9), 1414-1416 (1968) in which a 1000 mcg./ml. solution of the test compound is prepared. To the first cup of the Autotray is added 0.1 ml. of the test solution. Activation of the Autotiter initiates a sequence of operations by which 0.05 ml. of the test compound solution is withdrawn from this cup by a Microtiter transfer loop and diluted in 0.05 ml. of sterile semisynthetic medium (glucose). After this operation, 0.05 ml. of inoculated semisynthetic medium is added automatically to each cup. The overall operation results in final drug concentrations ranging from 500 to 0.06 mcg./ml. in twofold decrements. The Autotray is incubated for 18-20 hours at 37° C., at which time the trays are examined visually for growth as evidenced by turbidity, and the concentration of the last sample in the series showing no growth (or no turbidity) is recorded as the minimal inhibitory concentration (MIC). The compounds of formula I were thus found to be antibacterially effective against Staphylococcus aureus, Pseudomonas aeruginosa, Escherichia coli, and Proteus vulgaris at concentrations from 2 to 500 mcg./ml.
(§4) Data, expressed in terms of the minimum inhibitory concentration in mcg./ml., obtained in in vitro tests of the compounds of the invention in comparison with pyoluteorin against the bacterial organisms Staphylococcus aureus 209, Escherichia coli 198, Klebsiella pneumoniae 39645, Proteus vulgaris 9920, and Pseudomonas aeruginosa 211 (identified below as organisms A, B, C, D and E, respectively) are given in the table below.

[4] = test system: Proteus vulgaris 9920; assay: as above
Description: as §3, §4

[5] = test system: Pseudomonas aeruginosa 211; assay: as above
Description: as §3, §4

[6] = test system: Staphylococcus aureus 209; assay: as above
Description: as §3, §4

[7] = test system: Klebsiella pneumoniae 39645; assay: as above; conditions: organism C
Description: as §3, §4

[8] = 10 parts per million, agar, 25° C., 5 days
[9] = 10 parts per million, broth, room temperature, five days
[10] = organism B, Escherichia coli 198, in vitro, read-out: minimum inhibitory concentration (MIC)
[11] = organism D, Proteus vulgaris 9920, in vitro, read-out: minimum inhibitory concentration (MIC)
[12] = organism E, Pseudomonas aeruginosa 211, in vitro, read-out: minimum inhibitory concentration (MIC)
[13] = organism A, Staphylococcus aureus 209, in vitro, read-out: minimum inhibitory concentration (MIC)

Row | Compound | MIC [3, 10] [µg/mL] | MIC [7] [µg/mL] | MIC [4, 11] [µg/mL] | MIC [5, 12] [µg/mL] | MIC [6, 13] [µg/mL] | inhibition of growth at 10 µg/mL [1] [%] | inhibition of growth at 10 µg/mL [2] [%] | MIC ([3]; Escherichia coli, 198, read-out: minimum inhibitory concentration (MIC)) [µg/mL] | MIC ([4]; Proteus vulgaris, 9920, read-out: minimum inhibitory concentration (MIC)) [µg/mL] | MIC ([5]; Pseudomonas aeruginosa, 211, read-out: minimum inhibitory concentration (MIC)) [µg/mL] | MIC ([6]; Staphylococcus aureus, 209, read-out: minimum inhibitory concentration (MIC)) [µg/mL] | inhibition of growth at 10 µg/mL [1, 8] [%] | inhibition of growth at 10 µg/mL [2, 9] [%]
1 | O=C(c1cc(Cl)c(Cl)[nH]1)c1c(O)cccc1O [Pyoluteorin, 4,5-dichloropyrrol-2-yl 2,6-dihydroxyphenyl ketone, reference compound] |  |  |  |  |  | 4 | 38 | 6.2 (≈ 22.8 µM) | 125 (≈ 459 µM) | 125 (≈ 459 µM) | 3.1 (≈ 11.4 µM) |  | 
2 | COc1ccc(OC)c(C(=O)c2cc(Cl)c(Cl)[nH]2)c1 [Example 4, 4,5-dichloropyrrol-2-yl 2,5-dimethoxyphenyl ketone] | > 125 | > 125 | > 125 | > 125 | > 125 |  |  |  |  |  |  | 48 | 72
3 | COc1ccc(C(=O)c2cc(Cl)c(Cl)[nH]2)cc1OC [Example 3, 4,5-dichloropyrrol-2-yl 3,4-dimethoxyphenyl ketone] | > 125 | > 125 | > 125 | > 125 | > 125 |  |  |  |  |  |  | 25 | 75
4 | COc1ccc(C(=O)c2cc(Cl)c(Cl)[nH]2)c(OC)c1 [Example 1, 4,5-dichloropyrrol-2-yl 2,4-dimethoxyphenyl ketone] | > 125 | > 125 | > 125 | > 125 | 62.5 (≈ 208 µM) |  |  |  |  |  |  | 28 | 30
5 | COc1ccc(OC)c(C(=O)c2cc(Br)c(Br)[nH]2)c1 [Example 2, 4,5-dibromopyrrol-2-yl 2,5-dimethoxyphenyl ketone] | > 125 | > 125 | > 125 | > 125 | 31.3 (≈ 80.5 µM) |  |  |  |  |  |  | 32 | 38
6 | COc1ccc(C(=O)c2cc(Br)c(Br)[nH]2)cc1 [Example 6, 4,5-dibromopyrrol-2-yl 4-methoxyphenyl ketone] | > 125 | > 125 | > 125 | > 125 | > 125 |  |  |  |  |  |  | 11 | 66
7 | COc1cccc(C(=O)c2cc(Br)c(Br)[nH]2)c1 [Example 8, 4,5-dibromopyrrol-2-yl 3-methoxyphenyl ketone] | 250 (≈ 696 µM) | > 250 | 125 (≈ 348 µM) | > 125 | 250 (≈ 696 µM) |  |  |  |  |  |  | 28 | 75

Further compounds by falling MIC [3, 10], results first:

Row | MIC [3, 10] [µg/mL] | MIC [7] [µg/mL] | MIC [4, 11] [µg/mL] | MIC [5, 12] [µg/mL] | MIC [6, 13] [µg/mL] | Compound | inhibition of growth at 10 µg/mL [1] [%] | inhibition of growth at 10 µg/mL [2] [%] | MIC ([3]; Escherichia coli, 198, read-out: minimum inhibitory concentration (MIC)) [µg/mL] | MIC ([4]; Proteus vulgaris, 9920, read-out: minimum inhibitory concentration (MIC)) [µg/mL] | MIC ([5]; Pseudomonas aeruginosa, 211, read-out: minimum inhibitory concentration (MIC)) [µg/mL] | MIC ([6]; Staphylococcus aureus, 209, read-out: minimum inhibitory concentration (MIC)) [µg/mL] | inhibition of growth at 10 µg/mL [1, 8] [%] | inhibition of growth at 10 µg/mL [2, 9] [%]
8 | 125 (≈ 346 µM) | > 125 | 62.5 (≈ 173 µM) | 125 (≈ 346 µM) | 15.6 (≈ 43.2 µM) | O=C(c1cc(Br)c(Br)[nH]1)c1cc(O)ccc1O [Example 5, 4,5-dibromopyrrol-2-yl 2,5-dihydroxyphenyl ketone] |  |  |  |  |  |  | 28 | 83
9 | 125 (≈ 459 µM) | 125 (≈ 459 µM) | 62.5 (≈ 230 µM) | 125 (≈ 459 µM) | 0.98 (≈ 3.6 µM) | O=C(c1cc(Cl)c(Cl)[nH]1)c1cc(O)ccc1O [Example 10, 4,5-dichloropyrrol-2-yl 2,5-dihydroxyphenyl ketone] |  |  |  |  |  |  | 21 | 64
10 | 31.3 (≈ 115 µM) | > 125 | > 125 | > 125 | 3.9 (≈ 14.3 µM) | O=C(c1cc(Cl)c(Cl)[nH]1)c1ccc(O)cc1O [Example 9, 4,5-dichloropyrrol-2-yl 2,4-dihydroxyphenyl ketone] |  |  |  |  |  |  | 55 | 72
11 | 15.6 (≈ 57.8 µM) | > 62.5 | 62.5 (≈ 231 µM) | > 250 | > 31.6 | COc1ccc(C(=O)c2cc(Cl)c(Cl)[nH]2)cc1 [Example 7, 4,5-dichloropyrrol-2-yl 4-methoxyphenyl ketone] |  |  |  |  |  |  | 32 | 61
